In patent US4292305A, “Antiallergic imidodisulfamides” (SmithKline Corporation, priority 1980, dated 1981):

System: slow reacting substance of anaphylaxis (SRS-A)
Assay: Inhibition of SRS-A induced contraction of guinea pig ileum
Format: cell-based
Conditions: Cavia porcellus, 0.25 h, partially purified SRS-A from guinea pig lung at 40 μg/ml, isolated guinea pig ileum, read-out: antagonism of SRS-A
Description: The SRS-A antagonist activity of the compounds of this invention is measured by the ability of the active medicament to inhibit SRS-A induced contraction of guinea pig ileum. In this test system, sections of ileum are resected from guinea pigs and placed in 5 ml. tissue baths containing a modified Tyrode's solution. One end of the tissue is fixed to a glass tissue holder, the other is connected to a force-displacement transducer and the tissue is placed under a tension of 500 mg. Isometric tissue contractions are recorded on a six channel polygraph. Baths are constantly aerated with 95% O2 -5% CO2. After a 20 minute stabilization period a concentration of the appropriate agonist which provides a contraction height of 60-80% of the maximum obtainable to that agonist (as determined from full sequential concentration--response curves in separate experiments) is added to the tissue bath and the response recorded. The procedure is repeated until reproducible responses are obtained. […] Percent inhibition produced by the test compound is calculated by substracting the mean percentage change in control tissue from the mean percentage change in tissues exposed to the test compound. Additional compounds are then evaluated as long as the tissue remains reproducibly responsive to the agonist. […]

O=S(=O)(Nc1ccc(Br)cc1)NS(=O)(=O)Nc1ccc(Br)cc1 [1,5-di-(4-bromophenyl)-imidodisulfamide]
inhibition at 50 µM (test compound 5×10^-5 M): 47%

O=S(=O)(NCCCCc1ccccc1)NS(=O)(=O)NCCCCc1ccccc1 [1,5-di-(4-phenylbutyl)-imidodisulfamide]
inhibition at 10 µM (test compound 1×10^-5 M): 40%
